These results are taken from US20240166646A1, “1H-PYRROLO[2,3-B]PYRIDINE DERIVATIVES AS BCL-2 INHIBITORS FOR THE TREATMENT OF NEOPLASTIC AND AUTOIMMUNE DISEASES” (Newave Pharmaceutical Inc., priority 2020, published 2024).

Counter-ions that a name gives are not always drawn.

The assay deals with Bcl-2 (Homo sapiens (Human), UniProt P10415). The experiment in a line: Bcl-2 competition binding (fluorescence polarization) assay. The note with it: fluorescein labeled BH3 peptide 15 nM, Bcl-2 protein 30 nM, 3 hours of incubation at room temperature. The procedure: Biological Example 1: Bcl-2 Competition Binding (Fluorescence Polarization) Assay
Sequence of Bcl-2 (P10415 whole entry): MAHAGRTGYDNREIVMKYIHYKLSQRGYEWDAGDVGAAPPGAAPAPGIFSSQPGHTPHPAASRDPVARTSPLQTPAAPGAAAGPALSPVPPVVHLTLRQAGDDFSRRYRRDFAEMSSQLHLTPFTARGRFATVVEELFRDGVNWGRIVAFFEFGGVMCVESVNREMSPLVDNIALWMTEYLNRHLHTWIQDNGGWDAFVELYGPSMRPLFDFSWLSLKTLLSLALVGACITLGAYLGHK
The fluorescence-labeled 23 amino acid peptide BH3 was purchased from CalBiochem ([…]). […] This binding assay was performed in 96-well plate and with each assay contained 15 and 30 nM of labeled peptide and purified Bcl-2 protein (purchased from R&D Systems, Inc). The assay buffer contained 20 mM Hepes (pH 7.0), 50 mM KCl, 5 mM MgCl2, 20 mM Na2MoO4, 0.1 mg/mi Bovine Gamma Globulin and 0.01% NP40. Compounds were diluted in DMS0 and added to the final assay with concentration range from 20 μM to 2 nM. The polarization degree (mP) value was determined by BioTek Synergy II with background subtraction after 3 hours of incubation at room temperature. IC50 was calculated using Prism software with sigmoidal dose-response curve fitting. ABT-737 was used as reference compound. Such assays, carried out with a range of doses of test compounds, allowed the determination of an approximate IC50 value.
On to `CC(C)Nc1ccccc1[C@@H]1CCCN1C1CC2(CCN(c3ccc(C(=O)NS(=O)(=O)c4ccc(NCC5CCOCC5)c([N+](=O)[O-])c4)c(N4c5cc6cc[nH]c6nc5O[C@@H]5COC[C@H]54)c3)CC2)C1` [Example 21, 2-[(11R,15S)-13,16-dioxa-2,4,10-triazatetracyclo[7.7.0.0^{3,7}.0^{11,15}]hexadeca-1(9),2,5,7-tetraen-10-yl]-4-{2-[(2S)-2-[2-(isopropylamino)phenyl]pyrrolidin-1-yl]-7-azaspiro[3.5]nonan-7-yl}-N-{3-nitro-4-[(oxan-4-ylmethyl)amino]benzenesulfonyl}benzamide hydrochloride], for which the half-maximal inhibitory concentration (IC50) was found to be 0.239 nM.
Turning to `O=C(NS(=O)(=O)c1ccc(NCC2CCOCC2)c([N+](=O)[O-])c1)c1ccc(N2CCC3(CC2)CC(N2CCC[C@H]2c2ccccc2C2CCC2)C3)cc1N1c2cc3cc[nH]c3nc2O[C@@H]2COC[C@H]21` [Example 22, 4-{2-[(2S)-2-(2-cyclobutylphenyl)pyrrolidin-1-yl]-7-azaspiro[3.5]nonan-7-yl}-2-[(11R,15S)-13,16-dioxa-2,4,10-triazatetracyclo[7.7.0.0^{3,7}.0^{11,15}]hexadeca-1(9),2,5,7-tetraen-10-yl]-N-{3-nitro-4-[(oxan-4-ylmethyl)amino]benzenesulfonyl}benzamide], the IC50 worked out at 0.1 nM.
On to `O=C(NS(=O)(=O)c1ccc(NCC2CCOCC2)c([N+](=O)[O-])c1)c1ccc(N2CCC3(CC2)CC(N2CCC[C@H]2c2ccccc2Cl)C3)cc1N1c2cc3cc[nH]c3nc2O[C@@H]2COC[C@H]21` [Example 23, 4-{2-[(2S)-2-(2-chlorophenyl)pyrrolidin-1-yl]-7-azaspiro[3.5]nonan-7-yl}-2-[(11R,15S)-13,16-dioxa-2,4,10-triazatetracyclo[7.7.0.0^{3,7}.0^{11,15}]hexadeca-1(9),2,5,7-tetraen-10-yl]-N-{3-nitro-4-[(oxan-4-ylmethyl)amino]benzenesulfonyl}benzamide hydrochloride], for which the half-inhibitory concentration (IC50) was 0.587 nM.
Consider `O=C(NS(=O)(=O)c1ccc(NCC2CCOCC2)c([N+](=O)[O-])c1)c1ccc(N2CCC3(CC2)CC(N2CCC[C@H]2c2ccccc2F)C3)cc1N1c2cc3cc[nH]c3nc2O[C@@H]2COC[C@H]21` [Example 24, 2-[(11R,15S)-13,16-dioxa-2,4,10-triazatetracyclo[7.7.0.0^{3,7}.0^{11,15}]hexadeca-1(9),2,5,7-tetraen-10-yl]-4-{2-[(2S)-2-(2-fluorophenyl)pyrrolidin-1-yl]-7-azaspiro[3.5]nonan-7-yl}-N-{3-nitro-4-[(oxan-4-ylmethyl)amino]benzenesulfonyl}benzamide hydrochloride], for which the IC50 is 0.42 nM.
The figure for `CS(=O)(=O)Nc1ccccc1[C@@H]1CCCN1C1CC2(CCN(c3ccc(C(=O)NS(=O)(=O)c4ccc(NCC5CCOCC5)c([N+](=O)[O-])c4)c(N4c5cc6cc[nH]c6nc5O[C@@H]5COC[C@H]54)c3)CC2)C1` [Example 25, 2-[(11R,15S)-13,16-dioxa-2,4,10-triazatetracyclo[7.7.0.0^{3,7}.0^{11,15}]hexadeca-1(9),2,5,7-tetraen-10-yl]-4-{2-[(2S)-2-(2-methanesulfonamidophenyl)pyrrolidin-1-yl]-7-azaspiro[3.5]nonan-7-yl}-N-{3-nitro-4-[(oxan-4-ylmethyl)amino]benzenesulfonyl}benzamide] is 14.8 nM; for `N#Cc1ccccc1[C@@H]1CCCN1C1CC2(CCN(c3ccc(C(=O)NS(=O)(=O)c4ccc(NCC5CCOCC5)c([N+](=O)[O-])c4)c(N4c5cc6cc[nH]c6nc5O[C@@H]5COC[C@H]54)c3)CC2)C1` [Example 26, 4-{2-[(2S)-2-(2-cyanophenyl)pyrrolidin-1-yl]-7-azaspiro[3.5]nonan-7-yl}-2-[(11R,15S)-13,16-dioxa-2,4,10-triazatetracyclo[7.7.0.0^{3,7}.0^{11,15}]hexadeca-1(9),2,5,7-tetraen-10-yl]-N-{3-nitro-4-[(oxan-4-ylmethyl)amino]benzenesulfonyl}benzamide] it is 0.7 nM.
`O=C(NS(=O)(=O)c1ccc(NCC2CCOCC2)c([N+](=O)[O-])c1)c1ccc(N2CCC3(CC2)CC(N2CCC[C@H]2c2ccccc2NCC(F)(F)F)C3)cc1N1c2cc3cc[nH]c3nc2O[C@@H]2COC[C@H]21` [Example 27, 2-[(11R,15S)-13,16-dioxa-2,4,10-triazatetracyclo[7.7.0.0^{3,7}.0^{11,15}]hexadeca-1(9),2,5,7-tetraen-10-yl]-N-{3-nitro-4-[(oxan-4-ylmethyl)amino]benzenesulfonyl}-4-{2-[(2S)-2-{2-[(2,2,2-trifluoroethyl)amino]phenyl}pyrrolidin-1-yl]-7-azaspiro[3.5]nonan-7-yl}benzamide]: the IC50 is 1.2 nM.
`CC(C)S(=O)(=O)c1ccccc1[C@@H]1CCCN1C1CC2(CCN(c3ccc(C(=O)NS(=O)(=O)c4ccc(NCC5CCOCC5)c([N+](=O)[O-])c4)c(N4c5cc6cc[nH]c6nc5O[C@@H]5COC[C@H]54)c3)CC2)C1` [Example 28, 2-[(11R,15S)-13,16-dioxa-2,4,10-triazatetracyclo[7.7.0.0^{3,7}.0^{11,15}]hexadeca-1(9),2,5,7-tetraen-10-yl]-N-{3-nitro-4-[(oxan-4-ylmethyl)amino]benzenesulfonyl}-4-{2-[(2S)-2-[2-(propane-2-sulfonyl)phenyl]pyrrolidin-1-yl]-7-azaspiro[3.5]nonan-7-yl}benzamide]: the concentration for half-maximal inhibition (IC50) amounted to 31.2 nM.
For the compound `CP(C)(=O)c1ccccc1[C@@H]1CCCN1C1CC2(CCN(c3ccc(C(=O)NS(=O)(=O)c4ccc(NCC5CCOCC5)c([N+](=O)[O-])c4)c(N4c5cc6cc[nH]c6nc5O[C@@H]5COC[C@H]54)c3)CC2)C1` [Example 29, 4-{2-[(2S)-2-[2-(dimethylphosphoryl)phenyl]pyrrolidin-1-yl]-7-azaspiro[3.5]nonan-7-yl}-2-[(11R,15S)-13,16-dioxa-2,4,10-triazatetracyclo[7.7.0.0^{3,7}.0^{11,15}]hexadeca-1(9),2,5,7-tetraen-10-yl]-N-{3-nitro-4-[(oxan-4-ylmethyl)amino]benzenesulfonyl}benzamide], the 50% inhibitory concentration (IC50) came to 1.39 nM.
In the case of `NC(=O)c1ccccc1[C@@H]1CCCN1C1CC2(CCN(c3ccc(C(=O)NS(=O)(=O)c4ccc(NCC5CCOCC5)c([N+](=O)[O-])c4)c(N4c5cc6cc[nH]c6nc5O[C@@H]5COC[C@H]54)c3)CC2)C1` [Example 30, 4-{2-[(2S)-2-(2-carbamoylphenyl)pyrrolidin-1-yl]-7-azaspiro[3.5]nonan-7-yl}-2-[(11R,15S)-13,16-dioxa-2,4,10-triazatetracyclo[7.7.0.0^{3,7}.0^{11,15}]hexadeca-1(9),2,5,7-tetraen-10-yl]-N-{3-nitro-4-[(oxan-4-ylmethyl)amino]benzenesulfonyl}benzamide], the half-inhibitory concentration (IC50) amounted to 15.8 nM.
For the compound `CC1(C)C[C@@H](c2ccccc2[C@@H]2CCCN2C2CC3(CCN(c4ccc(C(=O)NS(=O)(=O)c5ccc(NCC6CCOCC6)c([N+](=O)[O-])c5)c(N5c6cc7cc[nH]c7nc6O[C@@H]6COC[C@H]65)c4)CC3)C2)CCO1` [Example 31, 4-{2-[(2S)-2-{2-[(4S)-2,2-dimethyloxan-4-yl]phenyl}pyrrolidin-1-yl]-7-azaspiro[3.5]nonan-7-yl}-2-[(11R,15S)-13,16-dioxa-2,4,10-triazatetracyclo[7.7.0.0^{3,7}.0^{11,15}]hexadeca-1(9),2,5,7-tetraen-10-yl]-N-{3-nitro-4-[(oxan-4-ylmethyl)amino]benzenesulfonyl}benzamide], the IC50 was determined as 30.7 nM.
For `CC1(C)C[C@H](c2ccccc2[C@@H]2CCCN2C2CC3(CCN(c4ccc(C(=O)NS(=O)(=O)c5ccc(NCC6CCOCC6)c([N+](=O)[O-])c5)c(N5c6cc7cc[nH]c7nc6O[C@@H]6COC[C@H]65)c4)CC3)C2)CCO1` [Example 32, 4-{2-[(2S)-2-{2-[(4R)-2,2-dimethyloxan-4-yl]phenyl}pyrrolidin-1-yl]-7-azaspiro[3.5]nonan-7-yl}-2-[(11R,15S)-13,16-dioxa-2,4,10-triazatetracyclo[7.7.0.0^{3,7}.0^{11,15}]hexadeca-1(9),2,5,7-tetraen-10-yl]-N-{3-nitro-4-[(oxan-4-ylmethyl)amino]benzenesulfonyl}benzamide], the concentration for half-maximal inhibition (IC50) turned out to be 15.8 nM.
The figure for `O=C(NS(=O)(=O)c1ccc(NCC2CCOCC2)c([N+](=O)[O-])c1)c1ccc(N2CCC3(CC2)CC(N2CCC[C@H]2c2cccc(Cl)c2)C3)cc1N1c2cc3cc[nH]c3nc2O[C@@H]2COC[C@H]21` [Example 33, 4-{2-[(2S)-2-(3-chlorophenyl)pyrrolidin-1-yl]-7-azaspiro[3.5]nonan-7-yl}-2-[(11R,15S)-13,16-dioxa-2,4,10-triazatetracyclo[7.7.0.0^{3,7}.0^{11,15}]hexadeca-1(9),2,5,7-tetraen-10-yl]-N-{3-nitro-4-[(oxan-4-ylmethyl)amino]benzenesulfonyl}benzamide] is 1.42 nM.
For the compound `O=C(NS(=O)(=O)c1ccc(NCC2CCOCC2)c([N+](=O)[O-])c1)c1ccc(N2CCC3(CC2)CC(N2CCC[C@H]2c2ccc(Cl)cc2)C3)cc1N1c2cc3cc[nH]c3nc2O[C@@H]2COC[C@H]21` [Example 34, 4-{2-[(2S)-2-(4-chlorophenyl)pyrrolidin-1-yl]-7-azaspiro[3.5]nonan-7-yl}-2-[(11R,15S)-13,16-dioxa-2,4,10-triazatetracyclo[7.7.0.0^{3,7}.0^{11,15}]hexadeca-1(9),2,5,7-tetraen-10-yl]-N-{3-nitro-4-[(oxan-4-ylmethyl)amino]benzenesulfonyl}benzamide], the 50% inhibitory concentration (IC50) was 3.5 nM.

A word on the IC50: it is the point on the concentration scale where inhibition reaches its midpoint.
